Legend:
[1] = test system: granulocyte-macrophage (CFU-GM), erythroid (BFU-E) and multipotential (CFU-GEMM) progenitor cells; test: Progenitor/stem cell mobilization in mice after single subcutaneous injection; assay type: in vivo, C3H/HeJ mice; conditions: 5 mg/kg s.c.
Experimental: All experiments were performed in […] mice. […] The progenitors were stimulated to form colonies in vitro with the combination of 1 U/mL rhu EPO, 50 ng/mL rmu SLF, 5% vol/vol pokeweed mitogen mouse spleen cell conditioned medium (PWMSCM), and 0.1 mM hemin. Plates were scored 7 days after incubation at 37° C., 5% CO2, lowered […] and in a humidified chamber.
In the first experiment (data shown in Table 6), mice received a dose of 5 mg/kg- and the number of progenitors in the circulating blood was measured at various time points (0.25, 0.5, 1, 2, 6 and 24 hours).

[2] = test system: granulocyte-macrophage (CFU-GM), erythroid (BFU-E) and multipotential (CFU-GEMM) progenitor cells; test: as above; assay type: in vivo, C3H/HeJ mice; conditions: Table 8; progenitor cells per mL of blood; 5 mg/kg s.c.; @ - 60″ (1 h)
[3] = biological target: T1, wild type CXCR4 (Homo sapiens, UniProt P61073); conditions: wild type CXCR4 in Cf2Th; read-out: EC50 for SDF-1α, calcium flux; cited from earlier work
T1 construct: expressed in transfected cells; host or cells: Cf2Th (canine thymus cell line lacking CXCR4)
T1 sequence (P61073 whole entry): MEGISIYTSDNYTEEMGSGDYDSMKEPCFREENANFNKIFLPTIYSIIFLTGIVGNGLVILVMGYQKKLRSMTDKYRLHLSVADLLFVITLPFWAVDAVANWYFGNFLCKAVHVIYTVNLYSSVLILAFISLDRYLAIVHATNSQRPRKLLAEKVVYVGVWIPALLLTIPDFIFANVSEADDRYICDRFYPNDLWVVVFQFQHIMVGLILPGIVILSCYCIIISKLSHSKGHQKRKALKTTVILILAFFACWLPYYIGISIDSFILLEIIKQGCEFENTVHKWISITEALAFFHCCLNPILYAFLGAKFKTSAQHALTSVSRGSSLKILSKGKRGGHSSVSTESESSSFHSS

[4] = biological target: T2, R334X CXCR4 variant (Homo sapiens, UniProt P61073); conditions: R334X variant in Cf2Th; read-out: EC50 for SDF-1α, calcium flux; cited from earlier work
T2 construct: expressed in transfected cells; host or cells: Cf2Th (canine thymus cell line lacking CXCR4)

[5] = biological target: T3, E343X CXCR4 variant (Homo sapiens, UniProt P61073); conditions: E343X variant in Cf2Th; read-out: EC50 for SDF-1α, calcium flux; cited from earlier work
T3 construct: expressed in transfected cells; host or cells: Cf2Th (canine thymus cell line lacking CXCR4)

[6] = Table 8, @ - 60″ (1 h), vs control
[7] = Table 8, progenitor cells per mL of blood, @ - 60″ (1 h)
[8] = comparison, AMD3100 at 1 hour, X4P-001 peak over 0.25-2 hours

## c1cc(CN2CCCNCCNCCCNCC2)ccc1CN1CCCNCCNCCCNCC1 [AMD3100, plerixafor, reference compound]
[1]; [6]
  BFU (BFU-E), Fold Chg: 3.12 fold
  GEMM (CFU-GEMM), Fold Chg: 4.35 fold
  GM (CFU-GM), Fold Chg: 9.11 fold
  Nucleated Cellularity PBL-LD, Fold Chg: 1.62 fold
[1]; [7]
  GEMM (CFU-GEMM), Mean: 138.5
  GM (CFU-GM), Mean: 1950.3
[1]; Table 8 comparison, @ - 60″ (1 h)
  Nucleated Cellularity PBL-LD, Mean: 1.008e+07 mL⁻¹
[1]; [8]
  Maximum fold-increase in BFU-E: 3.12 fold
  Maximum fold-increase in CFU-GEMM: 4.35 fold
  Maximum fold-increase in CFU-GM: 9.11 fold
[2]
  BFU (BFU-E), Mean: 207.7

## SDF-1α
[3]
  EC50: 13.6 nM
[4]
  EC50: 11.3 nM
[5]
  EC50: 15.3 nM
